Measured values from ChEMBL document CHEMBL3112491, “3-(5-)-Amino-o-diarylisoxazoles: regioselective synthesis and antitubulin activity” (2014).

Assays:
Assay type in all cases: functional
MDA-MB-231 = assay: Growth inhibition of human MDA-MB-231 cells after 48 hrs by sulforhodamine B assay; settings: MDA-MB-231, 48 h
KM12 = assay: Growth inhibition of human KM12 cells after 48 hrs by sulforhodamine B assay; settings: KM12, 48 h
[1] = Growth inhibition of human HCC2998 cells after 48 hrs by sulforhodamine B assay; settings: HCC 2998, 48 h
[2] = Growth inhibition of human SF539 cells after 48 hrs by sulforhodamine B assay; settings: SF-539, 48 h
PC-3 = assay: Growth inhibition of human PC3 cells after 48 hrs by sulforhodamine B assay; settings: PC-3, 48 h
HCT-116 = assay: Growth inhibition of human HCT116 cells after 48 hrs by sulforhodamine B assay; settings: HCT-116, 48 h
U-251 = assay: Growth inhibition of human U251 cells after 48 hrs by sulforhodamine B assay; settings: U-251, 48 h
Malme-3M = assay: Growth inhibition of human MALME-3M cells after 48 hrs by sulforhodamine B assay
OVCAR-3 = assay: Growth inhibition of human OVCAR3 cells after 48 hrs by sulforhodamine B assay; settings: OVCAR-3, 48 h
[3] = Growth inhibition of human UO31 cells after 48 hrs by sulforhodamine B assay; settings: UO-31, 48 h
LOX IMVI = assay: Growth inhibition of human LOXIMVI cells after 48 hrs by sulforhodamine B assay
NCI-H226 = assay: Growth inhibition of human NCI-H226 cells after 48 hrs by sulforhodamine B assay; settings: NCI-H226, 48 h
RPMI-8226 = assay: Growth inhibition of human RPMI8226 cells after 48 hrs by sulforhodamine B assay; settings: RPMI-8226, 48 h
MCF7 = assay: Growth inhibition of human MCF7 cells after 48 hrs by sulforhodamine B assay; settings: MCF7, 48 h
CCRF-CEM = assay: Growth inhibition of human CCRF-CEM cells after 48 hrs by sulforhodamine B assay
[4] = Growth inhibition of human NCI-ADR-RES cells after 48 hrs by sulforhodamine B assay
OVCAR-8 = assay: Growth inhibition of human OVCAR8 cells after 48 hrs by sulforhodamine B assay; settings: OVCAR-8, 48 h
[5] = Growth inhibition of human RXF393 cells after 48 hrs by sulforhodamine B assay; settings: RXF 393, 48 h
SN12C = assay: Growth inhibition of human SN12C cells after 48 hrs by sulforhodamine B assay
TK-10 = assay: Growth inhibition of human TK10 cells after 48 hrs by sulforhodamine B assay; settings: TK-10, 48 h
MDA-MB-435 = assay: Growth inhibition of human MDA-MB-435 cells after 48 hrs by sulforhodamine B assay; settings: MDA-MB-435, 48 h
SR = assay: Growth inhibition of human SR cells after 48 hrs by sulforhodamine B assay
M14 = assay: Growth inhibition of human M14 cells after 48 hrs by sulforhodamine B assay; settings: M14, 48 h
ACHN = assay: Growth inhibition of human ACHN cells after 48 hrs by sulforhodamine B assay
786-0 = assay: Growth inhibition of human 786-0 cells after 48 hrs by sulforhodamine B assay; settings: 786-0, 48 h
NCI-H322M = assay: Growth inhibition of human NCI-H322M cells after 48 hrs by sulforhodamine B assay
IGROV-1 = assay: Growth inhibition of human IGROV1 cells after 48 hrs by sulforhodamine B assay; settings: IGROV-1, 48 h
SK-OV-3 = assay: Growth inhibition of human SKOV3 cells after 48 hrs by sulforhodamine B assay; settings: SK-OV-3, 48 h
MOLT-4 = assay: Growth inhibition of human MOLT4 cells after 48 hrs by sulforhodamine B assay; settings: MOLT-4, 48 h
NCI-H522 = assay: Growth inhibition of human NCI-H522 cells after 48 hrs by sulforhodamine B assay; settings: NCI-H522, 48 h
HL-60(TB) = assay: Growth inhibition of human HL-60(TB) cells after 48 hrs by sulforhodamine B assay; settings: HL-60, 48 h
HCT-15 = assay: Growth inhibition of human HCT15 cells after 48 hrs by sulforhodamine B assay; settings: HCT-15, 48 h
MDA-MB-468 = assay: Growth inhibition of human MDA-MB-468 cells after 48 hrs by sulforhodamine B assay; settings: MDA-MB-468, 48 h
CAKI-1 = assay: Growth inhibition of human CAKI-1 cells after 48 hrs by sulforhodamine B assay; settings: CAKI-1, 48 h
UACC-62 = assay: Growth inhibition of human UACC62 cells after 48 hrs by sulforhodamine B assay; settings: UACC-62, 48 h
[6] = Growth inhibition of human EKVX cells after 48 hrs by sulforhodamine B assay
Paracentrotus lividus [7] = assay: Antimitotic activity in sea urchin fertilized egg assessed as cleavage arrest treated at 8 to 20 mins post-fertilization measured at 2.5 to 5.5 hrs post-fertilization
SNB-19 = assay: Growth inhibition of human SNB19 cells after 48 hrs by sulforhodamine B assay; settings: SNB-19, 48 h
HOP-62 = assay: Growth inhibition of human HOP62 cells after 48 hrs by sulforhodamine B assay; settings: HOP-62, 48 h
COLO 205 = assay: Growth inhibition of human COLO205 cells after 48 hrs by sulforhodamine B assay; settings: COLO 205, 48 h
SK-MEL-2 = assay: Growth inhibition of human SK-MEL-2 cells after 48 hrs by sulforhodamine B assay; settings: SK-MEL-2, 48 h
SW-620 = assay: Growth inhibition of human SW620 cells after 48 hrs by sulforhodamine B assay; settings: SW-620, 48 h
Paracentrotus lividus [8] = assay: Antimitotic activity in sea urchin fertilized egg assessed as cleavage alteration treated at 8 to 20 mins post-fertilization measured at 2.5 to 5.5 hrs post-fertilization
NCI-H23 = assay: Growth inhibition of human NCI-H23 cells after 48 hrs by sulforhodamine B assay; settings: NCI-H23, 48 h
DU-145 = assay: Growth inhibition of human DU145 cells after 48 hrs by sulforhodamine B assay; settings: DU-145, 48 h
SF-295 = assay: Growth inhibition of human SF295 cells after 48 hrs by sulforhodamine B assay; settings: SF-295, 48 h
[9] = Growth inhibition of human Hs 578T cells after 48 hrs by sulforhodamine B assay
A549 = assay: Growth inhibition of human A549/ATCC cells after 48 hrs by sulforhodamine B assay; settings: A549, 48 h
Paracentrotus lividus [10] = assay: Microtubule destabilizing activity in sea urchin free-swimming blastula assessed as embryo spinning treated at 9 to 10 hrs post-fertilization measured after 0.15 to 15 hrs
SF-268 = assay: Growth inhibition of human SF268 cells after 48 hrs by sulforhodamine B assay; settings: SF-268, 48 h
A498 = assay: Growth inhibition of human A498 cells after 48 hrs by sulforhodamine B assay; settings: A498, 48 h
SK-MEL-28 = assay: Growth inhibition of human SK-MEL-28 cells after 48 hrs by sulforhodamine B assay; settings: SK-MEL-28, 48 h
NCI-H460 = assay: Growth inhibition of human NCI-H460 cells after 48 hrs by sulforhodamine B assay; settings: NCI-H460, 48 h
[11] = Growth inhibition of human OVCAR4 cells after 48 hrs by sulforhodamine B assay; settings: OVCAR-4, 48 h
[12] = Growth inhibition of human HOP92 cells after 48 hrs by sulforhodamine B assay; settings: HOP-92, 48 h
BT-549 = assay: Growth inhibition of human BT549 cells after 48 hrs by sulforhodamine B assay; settings: BT-549, 48 h
T47D = assay: Growth inhibition of human T47D cells after 48 hrs by sulforhodamine B assay
[13] = Growth inhibition of human OVCAR5 cells after 48 hrs by sulforhodamine B assay; settings: OVCAR-5, 48 h
HT-29 = assay: Growth inhibition of human HT-29 cells after 48 hrs by sulforhodamine B assay; settings: HT-29, 48 h
SK-MEL-5 = assay: Growth inhibition of human SK-MEL-5 cells after 48 hrs by sulforhodamine B assay; settings: SK-MEL-5, 48 h

COc1ccc(-c2c(-c3cc(OC)c4c(c3)OCCO4)noc2N)cc1
GI50 (MDA-MB-231): 73.4 nM
GI50 (KM12): < 10 nM
GI50 [1]: 20.1 nM
GI50 [2]: 13 nM
GI50 (PC-3): 24.8 nM
GI50 (HCT-116): < 10 nM
GI50 (U-251): 14.8 nM
GI50 (Malme-3M): 23600 nM
GI50 (OVCAR-3): < 10 nM
GI50 [3]: 57.8 nM
GI50 (LOX IMVI): 11.2 nM
GI50 (NCI-H226): 27.7 nM
GI50 (RPMI-8226): 33.8 nM
GI50 (MCF7): < 10 nM
GI50 (CCRF-CEM): 15.5 nM
GI50 [4]: < 10 nM
GI50 (OVCAR-8): 21.5 nM
GI50 [5]: < 10 nM
GI50 (SN12C): 31.8 nM
GI50 (TK-10): 15.8 nM
GI50 (MDA-MB-435): < 10 nM
GI50 (SR): < 10 nM
GI50 (M14): < 10 nM
GI50 (ACHN): 12.2 nM
GI50 (786-0): 14.5 nM
GI50 (NCI-H322M): 25400 nM
GI50 (IGROV-1): 13.6 nM
GI50 (SK-OV-3): < 10 nM
GI50 (MOLT-4): 39.8 nM
GI50 (NCI-H522): < 10 nM
GI50 (HL-60(TB)): 10.4 nM
GI50 (HCT-15): < 10 nM
GI50 (MDA-MB-468): 12.2 nM
GI50 (CAKI-1): < 10 nM
GI50 (UACC-62): < 10 nM
GI50 [6]: 35.3 nM
EC (Paracentrotus lividus [7]): 0.01 µM
GI50 (SNB-19): 26.9 nM
GI50 (HOP-62): < 10 nM
GI50 (COLO 205): < 10 nM
GI50 (SK-MEL-2): < 10 nM
GI50 (SW-620): < 10 nM
EC (Paracentrotus lividus [8]): 0.002 µM
GI50 (NCI-H23): 1.95 nM
GI50 (DU-145): 32 nM
GI50 (SF-295): < 10 nM
GI50 [9]: < 10 nM
GI50 (A549): 10.1 nM
EC (Paracentrotus lividus [10]): 0.1 µM
GI50 (SF-268): 30 nM
GI50 (A498): < 10 nM
GI50 (SK-MEL-28): 17 nM
GI50 (NCI-H460): < 10 nM
GI50 [11]: 78.7 nM
GI50 [12]: 446 nM
GI50 (BT-549): 28.5 nM
GI50 (T47D): 27.2 nM
GI50 [13]: 50.5 nM
GI50 (HT-29): < 10 nM
GI50 (SK-MEL-5): < 10 nM
